This is an account of results in ChEMBL document CHEMBL1127849, “Benzisoxazole- and benzisothiazole-3-carboxamides as potential atypical antipsychotic agents” (J Med Chem, 1994).

Assay [1] has as its target T1, 5-hydroxytryptamine receptor 1A (Rattus norvegicus, UniProt P19327).
T1 sequence (P19327 whole entry): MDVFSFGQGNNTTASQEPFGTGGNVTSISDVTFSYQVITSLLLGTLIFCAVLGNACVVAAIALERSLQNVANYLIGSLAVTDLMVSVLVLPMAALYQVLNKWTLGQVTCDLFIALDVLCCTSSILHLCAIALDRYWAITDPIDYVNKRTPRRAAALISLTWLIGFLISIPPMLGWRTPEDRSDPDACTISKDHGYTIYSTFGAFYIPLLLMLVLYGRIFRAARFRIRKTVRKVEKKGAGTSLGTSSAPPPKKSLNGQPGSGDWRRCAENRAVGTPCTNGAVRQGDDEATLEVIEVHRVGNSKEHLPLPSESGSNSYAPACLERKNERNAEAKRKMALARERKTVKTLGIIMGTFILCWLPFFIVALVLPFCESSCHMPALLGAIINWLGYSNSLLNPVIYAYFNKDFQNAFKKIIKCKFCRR
Description: In vitro affinity towards 5-hydroxytryptamine 1A receptor using [3H]8-OH-DPAT as radioligand in hippocampus. In kind it is tissue-based.

Assay [2] deals with T2, Adrenergic receptor alpha-1 (Rattus norvegicus, UniProt P15823+P23944+P43140).
T2 sequence (P15823 whole entry): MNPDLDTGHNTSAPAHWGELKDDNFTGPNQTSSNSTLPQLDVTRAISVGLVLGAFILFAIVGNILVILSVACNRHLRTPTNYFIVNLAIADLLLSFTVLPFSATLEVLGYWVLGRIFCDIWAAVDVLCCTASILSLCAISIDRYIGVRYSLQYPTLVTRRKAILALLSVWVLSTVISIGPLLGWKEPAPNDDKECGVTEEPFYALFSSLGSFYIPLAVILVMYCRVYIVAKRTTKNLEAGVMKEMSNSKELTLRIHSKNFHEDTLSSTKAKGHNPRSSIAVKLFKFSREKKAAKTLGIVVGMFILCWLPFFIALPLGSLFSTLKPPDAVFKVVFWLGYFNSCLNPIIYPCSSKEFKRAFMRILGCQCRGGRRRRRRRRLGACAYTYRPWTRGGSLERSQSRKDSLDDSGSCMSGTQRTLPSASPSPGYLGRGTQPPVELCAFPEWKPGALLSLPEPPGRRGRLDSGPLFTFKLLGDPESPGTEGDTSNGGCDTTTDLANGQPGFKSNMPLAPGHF
T2 sequence (P23944 whole entry): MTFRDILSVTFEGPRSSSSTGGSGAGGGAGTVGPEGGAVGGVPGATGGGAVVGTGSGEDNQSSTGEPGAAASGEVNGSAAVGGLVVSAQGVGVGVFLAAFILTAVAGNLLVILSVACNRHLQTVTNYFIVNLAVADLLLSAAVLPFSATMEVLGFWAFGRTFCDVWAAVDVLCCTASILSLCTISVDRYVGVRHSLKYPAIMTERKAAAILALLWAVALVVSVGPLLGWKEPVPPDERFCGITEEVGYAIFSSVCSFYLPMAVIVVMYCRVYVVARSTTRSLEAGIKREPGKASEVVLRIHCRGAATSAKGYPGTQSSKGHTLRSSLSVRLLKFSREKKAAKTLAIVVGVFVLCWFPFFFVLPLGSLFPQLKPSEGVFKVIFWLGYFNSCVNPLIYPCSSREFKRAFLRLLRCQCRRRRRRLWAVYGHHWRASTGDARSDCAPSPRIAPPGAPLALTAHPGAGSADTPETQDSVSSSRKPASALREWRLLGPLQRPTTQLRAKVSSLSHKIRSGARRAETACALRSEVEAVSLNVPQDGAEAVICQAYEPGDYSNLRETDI
T2 sequence (P43140 whole entry): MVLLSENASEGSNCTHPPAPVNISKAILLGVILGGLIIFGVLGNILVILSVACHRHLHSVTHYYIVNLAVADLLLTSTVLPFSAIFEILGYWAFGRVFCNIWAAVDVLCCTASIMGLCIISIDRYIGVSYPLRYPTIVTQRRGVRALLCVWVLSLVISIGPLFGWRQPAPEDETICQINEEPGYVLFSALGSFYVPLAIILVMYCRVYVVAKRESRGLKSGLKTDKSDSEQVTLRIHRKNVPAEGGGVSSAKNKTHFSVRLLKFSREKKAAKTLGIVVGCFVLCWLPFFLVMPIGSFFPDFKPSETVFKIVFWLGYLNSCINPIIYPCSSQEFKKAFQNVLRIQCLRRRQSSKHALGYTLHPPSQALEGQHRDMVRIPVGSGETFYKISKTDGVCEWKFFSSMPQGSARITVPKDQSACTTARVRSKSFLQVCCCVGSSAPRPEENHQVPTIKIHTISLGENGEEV
The assay is described as follows: Its affinity towards alpha-1 receptor using [3H]WB-4101 as radioligand in whole brain minus cerebellum. The format is tissue-based.

The test system of assay [3] is Rattus norvegicus. Description: Compound was evaluated in vivo for its antipsychotic activity for inhibition of apomorphine-induced stereotypy in rat after intraperitoneal administration at a dose of 40 mg/kg. In kind it is functional. To be noted: ip.
Assay [4] addresses 5-hydroxytryptamine receptor 2A (Rattus norvegicus, UniProt P14842). The assay is described as follows: In vitro affinity towards 5-hydroxytryptamine 2A receptor using [3H]spiroperidol as radioligand in cortex.
Assay [5] has as its system Mus musculus. The assay is described as follows: In vivo effective dose for inhibition of apomorphine-induced climbing in mice after intraperitoneal administration at a dose 20 mg/kg. In kind it is functional. Conditions: ip.
The test system of assay [6] is Rattus norvegicus. Description: Compound evaluated in vivo for its antipsychotic activity for inhibition of apomorphine-induced stereotypy in rat after intraperitoneal administration of a dose of 13 mg/kg. In kind it is functional. To be noted: ip.
Assay [7] concerns Mus musculus. Description: In vivo for its effective dose for inhibition of apomorphine-induced climbing in mice after intraperitoneal administration at a dose 20 mg/kg. In kind it is functional. To be noted: ip.
The test system of assay [8] is Rattus norvegicus. Description: Compound was evaluated in vivo for its antipsychotic activity for inhibition of apomorphine-induced stereotypy in rat. In kind it is functional.

5-hydroxytryptamine receptor 2A, sequence (P14842 whole entry): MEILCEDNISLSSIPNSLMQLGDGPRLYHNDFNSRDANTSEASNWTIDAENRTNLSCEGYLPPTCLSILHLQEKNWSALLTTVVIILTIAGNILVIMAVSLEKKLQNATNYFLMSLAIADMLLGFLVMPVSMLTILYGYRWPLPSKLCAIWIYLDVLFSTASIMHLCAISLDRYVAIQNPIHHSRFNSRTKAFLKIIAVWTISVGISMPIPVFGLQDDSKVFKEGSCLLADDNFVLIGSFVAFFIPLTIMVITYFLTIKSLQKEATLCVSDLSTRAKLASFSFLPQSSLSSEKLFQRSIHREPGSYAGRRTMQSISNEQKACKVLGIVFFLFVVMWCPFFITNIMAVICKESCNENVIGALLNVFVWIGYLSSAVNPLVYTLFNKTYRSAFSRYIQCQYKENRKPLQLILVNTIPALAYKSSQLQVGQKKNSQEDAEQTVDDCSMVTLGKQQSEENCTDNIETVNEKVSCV

Turning to `O=C(NCCCCN1CCN(c2nsc3ccccc23)CC1)c1nsc2ccccc12`, the IC50 is 18 nM in assay [1], 5 nM in assay [2] and 201 nM in assay [4]. The inhibition in vivo at 40 mg/kg in assay [3] was 17%.
On to `CN(CCN1CCC(c2noc3cc(F)ccc23)CC1)C(=O)c1nsc2ccccc12`, for which the IC50 in assay [1] was determined as 820 nM; in assay [2], 9.4 nM; in assay [4] it was 32.8 nM. For the same compound, in assay [5], the 50% effect level (ED50) was put at a dose of 1.7 mg/kg. In assay [6], this compound displayed an inhibition in vivo at 13 mg/kg of 50%.
With `CN(CCCCN1CCN(c2nsc3ccccc23)CC1)C(=O)c1nsc2ccccc12`, the IC50 came out at 18.6 nM in assay [1], 5.8 nM in assay [2] and 13 nM in assay [4]. Besides, the ED50 in assay [7] came out at 2.49 mg/kg; in assay [8] it was 39.2 mg/kg.
